Results on two molecules are retold here after patent US7993638B2, “Cancer treatment combining lymphodepleting agent with CTLs and cytokines” (Janssen Pharmaceutica NV, priority 2006, dated 2011).

Data set [1] has as its system lymphocytes. The note with it: cited from earlier work.
The test system of data set [2] is lymphocytes. The note with it: […] s.c., 5 consecutive days (total 0.7 mg/kg), hairy cell leukemia patients; cited from earlier work.
The conditions of data set [3]: subcutaneous versus IV; cited from earlier work.
For data set [4] the following is noted: 0.07 mg/kg/day x 5 days monthly for 6 months, cited from earlier work.
Data set [5] relates to class I and melanoma-associated antigen expression. Kind of data set: Study 2: IHC stains of serial biopsy samples after 5-day course of IFN-alpha. The data set is classed as in vivo, human. The note with it: 10 MU/m^2 s.c., five day course; serial biopsies of a single patient. From the text:
Interferon-alpha (IFN-α) has a broad spectrum of immunomodulatory and antiproliferative effects in a variety of malignancies. It is believed that one mechanism of action of IFN-α is the upregulation of tumor antigen expression on melanoma cells. It has the ability to enhance the expression of immunologically important molecules on the surface of the tumor. These include the MHC antigens, accessory molecules, as well as tumor-associated antigens.^25-27 These immunomodulatory effects may improve the activity of the immune system, including both antibodies and lymphocytes, to recognize and attack tumor cells in vivo. […] It is believed that these two modalities of immunotherapy may act synergistically. […] The same 5-day course in clinical study was included in Study 3.

[6] abbreviates: administered for 4 monthly courses.

Turning to `Nc1nc(Cl)nc2c1ncn2[C@H]1C[C@H](O)[C@@H](CO)O1` [cladribine, 2-chloro-2′deoxy-β-D-adenosine], the lymphopenia result in the data set on lymphocytes [1] (MS patients) is listed as “observed in all patients”. In the data set on lymphocytes [1] (setting [6]), the “time at which lymphocyte levels begin to recover” value is given as at most 6 months and the “time to lymphocyte nadir” value is on record as 5 months. In addition, the safety entry in the data set with lymphocytes [2] is “safe”. Moreover, the “pharmacokinetic and therapeutic results of subcutaneous route” value in data set [3] is “entirely equivalent to the IV route”. In data set [4] (cumulative 2.1 mg/kg), the haematological toxicity entry is listed as “no individual cases of significant thrombocytopenia, anemia granulocytopenia or generalized marrow suppression”. Besides, the “patients with mild segmental herpes zoster” value in data set [4] (27 patients in drug arm, one case on placebo) was “two”.

For IFN-α, in data set [5], the “upregulation of class I and melanoma-associated antigen expression (IHC)” value is “sufficient to upregulate both class I and melanoma-associated antigen expression”.
